US8937091B2 (Japan Science and Technology Agency, priority 2009, dated 2015)

Assays:
[1] = system: SOCE (store operated calcium entry) in CHO cells; test: Assay of SOCE (store operated calcium entry)-inhibiting action; assay type: cell-based, Chinese hamster; details: CHO cells, thapsigargin; for inhibition at 10 µM / inhibition at 30 µM / inhibition at 100 µM: Cricetulus griseus, CHO, read-out: SOCE level (percentage of inhibition)
How it was run: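 CHO cells in calcium-free BSS received compound, then 1 μM thapsigargin 2 min later to deplete stores; after 9 min, 2 mM calcium chloride (final) added. Percent inhibition of the rise in intracellular calcium determined at various compound concentrations.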

[2] = system: IICR (IP3 induced calcium release) in CHO cells; test: Assay of IICR (IP3 induced calcium release)-inhibiting action; assay type: cell-based, Chinese hamster; details: CHO cells, 10 μM ATP; for inhibition at 10 µM / inhibition at 30 µM / inhibition at 100 µM: Cricetulus griseus, CHO, read-out: IICR level (percentage of inhibition)
How it was run: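 Inhibition (%) of the intracellular calcium increase triggered by 10 μM ATP, measured in CHO cells in BSS with calcium. Compound given 1 min after the buffer exchange and 2 min before ATP; values reported per compound concentration.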

| Structure (SMILES) | inhibition at 10 µM ([1]; test compound 10 μmol) | inhibition at 30 µM ([1]; test compound 30 μmol) | inhibition at 100 µM ([1]; test compound 100 μmol) | inhibition at 10 µM ([2]; test compound 10 μmol) | inhibition at 30 µM ([2]; test compound 30 μmol) | inhibition at 100 µM ([2]; test compound 100 μmol) | SOCE level (percentage of inhibition) ([1]; test compound 10 μmol) | SOCE level (percentage of inhibition) ([1]; test compound 30 μmol) | SOCE level (percentage of inhibition) ([1]; test compound 100 μmol) | IICR level (percentage of inhibition) ([2]; test compound 10 μmol) | IICR level (percentage of inhibition) ([2]; test compound 30 μmol) | IICR level (percentage of inhibition) ([2]; test compound 100 μmol) |
| --- | --- | --- | --- | --- | --- | --- | --- | --- | --- | --- | --- | --- |
| O=C(CCN1CCCC1CO)c1ccc(Br)s1 (centres unmarked) [Example 333, 2-(2-hydroxymethylpyrrolidinyl)aminoethyl-5-bromo-2-thienylketone] | 20% | 30% | 20% | 0% | 30% | 50% |  |  |  |  |  |  |
| CCN(CCC(=O)c1ccco1)Cc1ccccc1 [Example 142, 2-(N-benzylethyl)aminoethyl-2-furylketone] | 0% | 0% | 0% | 40% | 50% | 80% |  |  |  |  |  |  |
| C=CCC(=O)c1ccc2ccccc2c1 [Example 92, Allyl-2-naphthylketone] | 0% | 0% | 0% | 0% | 0% | 30% |  |  |  |  |  |  |
| CC(C)N(CCC(=O)c1ccc(Cc2ccccc2)cc1)Cc1ccccc1 [Example 103, 2-(N-isopropylbenzyl)aminoethyl-4-benzylphenylketone] |  |  |  |  |  |  | 10% | 50% | 60% | 80% | 80% | 100% |
| CC(C)(C)N(CCC(=O)c1cnccn1)Cc1ccccc1 [Example 213, 2-(N-2-benzyl-t-butyl)aminoethyl-2-pyrazylketone] | 0% | 0% | 10% | 20% | 80% | 90% |  |  |  |  |  |  |
| Cc1ccc(C(=O)CCNC23CC4CC(CC(C4)C2)C3)o1 [Example 190, 2-N-adamantane-aminoethyl-2-methylfurylketone] | 0% | 10% | 50% | 0% | 10% | 50% |  |  |  |  |  |  |
| Cc1ccsc1C(=O)CCN(Cc1ccccc1)C(C)(C)C [Example 314, 2-(N-benzyl-t-butyl)aminoethyl-3-methyl-2-thienylketone] | 0% | 10% | 20% | 70% | 70% | 100% |  |  |  |  |  |  |
| CC(C)(C)N(CCC(=O)c1ncccc1Br)Cc1ccccc1 [Example 408, 2-(N-t-butyl-N-benzyl)aminoethyl-3-bromo-2-pyridylketone] | 20% | 40% | 50% | 76% | 83% | 77% |  |  |  |  |  |  |
| O=C(CCN(CCO)Cc1ccccc1)c1ccncc1 [Example 135, 2-(N-benzylhydroxyethyl)aminoethyl-4-pyridylketone] | 0% | 0% | 0% | 20% | 10% | 0% |  |  |  |  |  |  |
| CN(CCO)CCC(=O)c1cnccn1 [Example 208, 2-(N-hydroxyethylmethyl)aminoethyl-2-pyrazylketone] | 0% | 10% | 20% | 20% | 30% | 30% |  |  |  |  |  |  |
| CCc1nccnc1C(=O)CCN(CCO)C(C)C [Example 252, 2-(N-isopropyl-2-hydroxyethyl)aminoethyl-3-ethyl-2-pyrazylketone] |  |  |  |  |  |  | 0% | 0% | 0% | 0% | 0% | 80% |
| CC(C)(C)N(CCO)CCC(=O)c1ccc(Br)s1 [Example 294, 2-(N-2-hydroxyethyl-t-butyl)aminoethyl-5-bromo-2-thienylketone] | 0% |  | 10% |  |  | 50% |  |  |  | 70% | 40% |  |
| CC(C)N(CCC(=O)c1cc(Cl)sc1Cl)Cc1ccccc1 [Example 202, 2-(N-isopropylbenzyl)aminomethyl-3-(2,5-dichlorothiophenyl)ketone] | 0% | 20% | 50% | 50% | 80% | 100% |  |  |  |  |  |  |
| O=C(CCN(CCO)c1ccccc1)c1ccccc1 [Example 133, 2-(N-phenylhydroxyethyl)aminoethylphenylketone] | 0% | 0% | 0% | 20% | 20% | 30% |  |  |  |  |  |  |
| O=C(CCN(CCO)CCO)c1ccco1 [Example 174, 2-(N-bis(hydroxyethyl))aminoethyl-2-furylketone] |  |  |  |  |  |  | 0% | 0% | 0% | 0% | 0% | 0% |
| O=C(CCN(CCO)Cc1ccccc1)c1ccco1 [Example 124, 2-(N-hydroxyethylbenzyl)aminoethyl-2-furylketone] | 0% | 0% | 0% | 20% | 20% | 70% |  |  |  |  |  |  |
| CN(CCC(=O)c1cnccn1)Cc1ccccc1 [Example 215, 2-(N-benzylmethyl)aminoethyl-2-pyrazylketone] | 0% | 0% | 0% | 0% | 0% | 50% |  |  |  |  |  |  |
| CC(CN(C)CCO)C(=O)c1ccc(F)cc1 (centres unmarked) [Example 163, 2-(N-hydroxyethylmethyl)amino-1-methylethyl-4-fluorophenylketone] | 0% | 0% | 20% | 0% | 0% | 0% |  |  |  |  |  |  |
| CC(C)N(CCC(=O)c1ccccc1)Cc1ccccc1 [Example 69, 2-(isopropylbenzyl)aminoethylphenylketone] | 0% | 10% | 20% | 20% | 20% | 90% |  |  |  |  |  |  |
| O=C(CCN(CCO)CCO)c1ccc2ccccc2c1 [Example 147, 2-(N-bishydroxyethyl)aminoethyl-2-naphthylketone] | 0% | 0% | 0% | 20% | 60% | 90% |  |  |  |  |  |  |
| O=C(CCN(Cc1ccccc1)Cc1ccccc1)c1ccc(Br)s1 [Example 325, 2-(N-dibenzyl)aminoethyl-5-bromo-2-thienylketone] | 0% | 20% | 40% | 20% | 20% | 50% |  |  |  |  |  |  |
| CC(CN(CCO)C(C)C)C(=O)c1ccccc1F (centres unmarked) [Example 181, 1-methyl-2-(N-hydroxyethylisopropyl)aminoethyl-2-fluorophenylketone] | 20% | 40% | 80% | 0% | 10% | 20% |  |  |  |  |  |  |
| Cc1cccc2cc(C(=O)CCN(c3ccccc3)c3ccccc3)ccc12 [Example 80, 2-(N-diphenyl)aminoethyl-5-methyl-2-naphthylketone] | 10% | 30% | 50% | 10% | 50% | 90% |  |  |  |  |  |  |
| CC(C)N(CCC(=O)c1ccc(F)cc1)Cc1ccccc1 [Example 212, 2-(N-isopropylbenzyl)aminoethyl-4-fluorophenylketone] | 0% | 30% | 50% | 20% | 80% | 30% |  |  |  |  |  |  |
| N[C@@H](CSSC[C@@H](C(=O)O)N(CCC(=O)c1ccc(Cl)s1)CCC(=O)c1ccc(Cl)s1)C(=O)O [Example 387, N,N-bis(2-(5-chloro-2-thiophenoyl)ethyl)cystine] | 20% | 40% | 50% | 0% | 0% | 70% |  |  |  |  |  |  |
| CC(C)N(CCC(=O)c1ccncc1)C(C)C [Example 397, 2-diisopropylaminoethyl-4-pyridylketone] | 20% | 40% | 50% | 0% | 0% | 10% |  |  |  |  |  |  |
